We go through 11 compounds from ChEMBL document CHEMBL3991601, “The target landscape of clinical kinase drugs” (Science, 2017).

Each structure is given as a SMILES string. Activity calls are given as the source filed them. Rule as the data show it, for most assays here: actives have a measured Kd and inactives only a lower limit.

In one assay the target is T1, Ephrin type-B receptor 3 (Homo sapiens, UniProt P54753).
T1 sequence (P54753 whole entry): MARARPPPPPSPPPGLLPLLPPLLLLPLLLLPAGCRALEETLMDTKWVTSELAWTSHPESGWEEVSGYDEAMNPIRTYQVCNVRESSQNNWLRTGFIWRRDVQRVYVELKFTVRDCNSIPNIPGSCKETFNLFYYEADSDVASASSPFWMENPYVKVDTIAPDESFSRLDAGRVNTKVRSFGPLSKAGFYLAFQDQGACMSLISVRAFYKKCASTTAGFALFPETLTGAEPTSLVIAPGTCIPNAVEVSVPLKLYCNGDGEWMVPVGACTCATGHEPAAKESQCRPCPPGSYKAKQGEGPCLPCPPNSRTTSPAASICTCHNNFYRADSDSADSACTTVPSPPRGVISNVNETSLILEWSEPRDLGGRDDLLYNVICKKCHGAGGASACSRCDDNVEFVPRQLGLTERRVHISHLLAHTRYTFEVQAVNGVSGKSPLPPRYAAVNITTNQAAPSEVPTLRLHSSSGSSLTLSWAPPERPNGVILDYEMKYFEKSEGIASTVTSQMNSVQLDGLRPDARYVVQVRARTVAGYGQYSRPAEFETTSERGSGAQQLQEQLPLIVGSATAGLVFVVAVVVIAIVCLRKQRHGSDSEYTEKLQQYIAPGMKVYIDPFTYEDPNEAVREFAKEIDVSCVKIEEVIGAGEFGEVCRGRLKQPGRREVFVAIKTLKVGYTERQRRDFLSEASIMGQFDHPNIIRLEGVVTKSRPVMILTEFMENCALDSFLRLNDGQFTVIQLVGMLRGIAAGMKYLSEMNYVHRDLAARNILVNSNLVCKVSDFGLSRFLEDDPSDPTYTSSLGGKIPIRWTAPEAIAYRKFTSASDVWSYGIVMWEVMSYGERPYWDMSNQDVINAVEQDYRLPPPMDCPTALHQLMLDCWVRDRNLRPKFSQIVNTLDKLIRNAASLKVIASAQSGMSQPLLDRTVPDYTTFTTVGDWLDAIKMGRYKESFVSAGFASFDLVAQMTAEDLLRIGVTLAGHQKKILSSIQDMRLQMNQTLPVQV

The target of assay [1] is Serine/threonine-protein kinase MRCK beta (Homo sapiens, UniProt Q9Y5S2).
Assay [2] deals with T2, Tyrosine--tRNA ligase, cytoplasmic (Homo sapiens, UniProt P54577).
T2 sequence (P54577 whole entry): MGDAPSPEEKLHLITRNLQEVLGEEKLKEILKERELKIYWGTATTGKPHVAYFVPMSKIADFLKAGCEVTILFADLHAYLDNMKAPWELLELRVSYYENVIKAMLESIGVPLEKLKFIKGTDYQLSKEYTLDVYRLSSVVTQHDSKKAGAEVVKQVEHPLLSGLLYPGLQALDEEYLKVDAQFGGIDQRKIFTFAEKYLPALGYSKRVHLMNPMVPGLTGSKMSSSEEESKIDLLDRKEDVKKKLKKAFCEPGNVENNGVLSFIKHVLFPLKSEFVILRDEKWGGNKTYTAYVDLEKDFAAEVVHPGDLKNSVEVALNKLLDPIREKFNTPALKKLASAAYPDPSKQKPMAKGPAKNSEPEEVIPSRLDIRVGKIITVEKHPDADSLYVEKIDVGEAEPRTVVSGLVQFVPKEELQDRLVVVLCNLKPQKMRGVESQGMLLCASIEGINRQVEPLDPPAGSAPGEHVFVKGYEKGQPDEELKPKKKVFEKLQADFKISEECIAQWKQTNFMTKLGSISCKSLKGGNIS

The target of assay [3] is Tyrosine-protein kinase JAK1 (Homo sapiens, UniProt P23458).
Chain of Tyrosine-protein kinase JAK1 (P23458 whole entry): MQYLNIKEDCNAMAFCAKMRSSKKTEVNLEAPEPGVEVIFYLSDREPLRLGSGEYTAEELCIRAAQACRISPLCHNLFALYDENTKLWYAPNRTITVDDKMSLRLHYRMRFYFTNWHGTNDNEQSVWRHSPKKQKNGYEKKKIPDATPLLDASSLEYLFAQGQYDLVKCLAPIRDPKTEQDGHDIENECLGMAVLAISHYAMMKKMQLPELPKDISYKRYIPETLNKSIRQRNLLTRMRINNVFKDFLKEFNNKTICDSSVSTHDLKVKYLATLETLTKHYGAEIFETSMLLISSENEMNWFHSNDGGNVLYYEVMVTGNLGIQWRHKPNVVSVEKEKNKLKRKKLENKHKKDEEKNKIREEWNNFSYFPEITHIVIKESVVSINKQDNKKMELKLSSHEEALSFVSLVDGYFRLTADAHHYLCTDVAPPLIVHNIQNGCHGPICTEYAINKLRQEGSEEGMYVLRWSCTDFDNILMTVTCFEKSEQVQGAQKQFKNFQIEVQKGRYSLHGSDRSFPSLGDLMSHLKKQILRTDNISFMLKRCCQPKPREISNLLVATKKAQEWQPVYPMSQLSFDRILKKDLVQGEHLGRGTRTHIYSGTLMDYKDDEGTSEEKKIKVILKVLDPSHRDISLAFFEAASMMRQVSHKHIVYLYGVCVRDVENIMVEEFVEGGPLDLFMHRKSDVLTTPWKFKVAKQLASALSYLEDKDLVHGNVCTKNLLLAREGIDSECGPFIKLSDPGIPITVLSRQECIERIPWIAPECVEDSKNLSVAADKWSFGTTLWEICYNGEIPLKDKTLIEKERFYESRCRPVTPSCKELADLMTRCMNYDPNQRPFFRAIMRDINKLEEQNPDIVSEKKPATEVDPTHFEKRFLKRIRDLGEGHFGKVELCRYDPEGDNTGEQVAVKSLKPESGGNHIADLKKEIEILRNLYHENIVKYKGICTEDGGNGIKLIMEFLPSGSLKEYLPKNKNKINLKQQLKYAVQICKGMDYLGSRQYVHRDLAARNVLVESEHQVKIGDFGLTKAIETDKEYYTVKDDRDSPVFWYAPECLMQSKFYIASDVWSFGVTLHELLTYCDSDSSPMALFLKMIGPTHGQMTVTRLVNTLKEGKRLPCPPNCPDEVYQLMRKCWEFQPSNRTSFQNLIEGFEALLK
For assay [4], the target named is T3, Serine/threonine-protein kinase 3 (Homo sapiens, UniProt Q13188).
T3 sequence (Q13188 whole entry): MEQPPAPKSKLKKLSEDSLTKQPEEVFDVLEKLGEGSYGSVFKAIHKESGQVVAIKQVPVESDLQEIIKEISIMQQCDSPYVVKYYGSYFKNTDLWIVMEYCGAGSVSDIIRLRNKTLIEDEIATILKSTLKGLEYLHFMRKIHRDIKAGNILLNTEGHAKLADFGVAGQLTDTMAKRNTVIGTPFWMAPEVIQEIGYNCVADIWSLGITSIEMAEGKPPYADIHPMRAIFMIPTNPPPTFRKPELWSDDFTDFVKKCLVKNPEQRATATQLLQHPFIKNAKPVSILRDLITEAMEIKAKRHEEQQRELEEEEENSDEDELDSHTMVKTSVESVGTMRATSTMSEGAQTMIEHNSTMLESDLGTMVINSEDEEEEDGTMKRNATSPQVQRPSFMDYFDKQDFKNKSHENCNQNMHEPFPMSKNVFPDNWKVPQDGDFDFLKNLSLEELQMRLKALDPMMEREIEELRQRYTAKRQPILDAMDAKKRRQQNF

Assay [5] addresses Serine/threonine-protein kinase 26 (Homo sapiens, UniProt Q9P289).
The target of assay [6] is Mitogen-activated protein kinase kinase kinase 4 (Homo sapiens, UniProt Q9Y6R4).
Chain of Mitogen-activated protein kinase kinase kinase 4 (Q9Y6R4 whole entry): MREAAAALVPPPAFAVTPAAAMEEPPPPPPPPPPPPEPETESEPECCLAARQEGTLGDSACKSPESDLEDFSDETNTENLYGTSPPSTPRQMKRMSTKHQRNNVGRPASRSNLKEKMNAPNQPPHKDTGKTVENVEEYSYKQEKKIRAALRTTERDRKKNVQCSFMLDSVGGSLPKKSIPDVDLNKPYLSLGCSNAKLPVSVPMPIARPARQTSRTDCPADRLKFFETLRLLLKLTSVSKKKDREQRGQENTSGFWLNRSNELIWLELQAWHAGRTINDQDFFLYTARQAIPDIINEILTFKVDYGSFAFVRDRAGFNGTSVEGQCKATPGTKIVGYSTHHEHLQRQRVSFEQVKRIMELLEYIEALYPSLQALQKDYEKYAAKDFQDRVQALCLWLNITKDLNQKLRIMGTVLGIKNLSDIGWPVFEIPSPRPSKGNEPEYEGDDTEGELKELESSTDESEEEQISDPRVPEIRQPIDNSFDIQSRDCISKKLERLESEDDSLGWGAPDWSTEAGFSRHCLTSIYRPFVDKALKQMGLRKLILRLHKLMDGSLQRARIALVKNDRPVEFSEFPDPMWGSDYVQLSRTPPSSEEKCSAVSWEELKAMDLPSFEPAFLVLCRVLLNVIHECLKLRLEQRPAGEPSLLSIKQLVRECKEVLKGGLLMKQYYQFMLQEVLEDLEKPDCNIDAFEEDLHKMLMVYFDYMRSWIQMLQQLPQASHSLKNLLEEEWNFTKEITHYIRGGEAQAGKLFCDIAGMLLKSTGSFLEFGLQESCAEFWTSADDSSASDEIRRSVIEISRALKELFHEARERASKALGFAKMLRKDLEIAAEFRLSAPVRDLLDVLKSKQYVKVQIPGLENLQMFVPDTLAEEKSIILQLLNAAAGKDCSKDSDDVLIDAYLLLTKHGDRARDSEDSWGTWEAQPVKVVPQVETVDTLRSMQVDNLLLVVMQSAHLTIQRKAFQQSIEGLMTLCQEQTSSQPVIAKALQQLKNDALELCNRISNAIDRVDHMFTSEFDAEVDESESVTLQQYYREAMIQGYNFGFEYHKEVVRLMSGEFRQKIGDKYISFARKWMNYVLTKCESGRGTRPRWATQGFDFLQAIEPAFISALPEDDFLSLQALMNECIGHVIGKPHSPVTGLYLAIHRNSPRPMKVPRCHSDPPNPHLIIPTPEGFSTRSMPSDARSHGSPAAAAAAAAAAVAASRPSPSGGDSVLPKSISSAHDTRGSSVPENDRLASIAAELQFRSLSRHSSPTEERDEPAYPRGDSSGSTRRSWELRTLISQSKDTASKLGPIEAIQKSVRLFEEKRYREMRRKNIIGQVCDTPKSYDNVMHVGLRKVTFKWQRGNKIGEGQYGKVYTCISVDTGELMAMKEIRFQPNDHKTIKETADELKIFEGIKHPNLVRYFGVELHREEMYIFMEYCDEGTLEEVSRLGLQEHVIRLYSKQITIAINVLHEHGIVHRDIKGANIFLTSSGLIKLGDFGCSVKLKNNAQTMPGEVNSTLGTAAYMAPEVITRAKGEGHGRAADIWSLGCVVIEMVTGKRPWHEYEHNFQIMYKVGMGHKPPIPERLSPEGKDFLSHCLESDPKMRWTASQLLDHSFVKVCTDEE
For assay [7], the target named is ATP-dependent RNA helicase DDX3X (Homo sapiens, UniProt O00571).
Chain of ATP-dependent RNA helicase DDX3X (O00571 whole entry): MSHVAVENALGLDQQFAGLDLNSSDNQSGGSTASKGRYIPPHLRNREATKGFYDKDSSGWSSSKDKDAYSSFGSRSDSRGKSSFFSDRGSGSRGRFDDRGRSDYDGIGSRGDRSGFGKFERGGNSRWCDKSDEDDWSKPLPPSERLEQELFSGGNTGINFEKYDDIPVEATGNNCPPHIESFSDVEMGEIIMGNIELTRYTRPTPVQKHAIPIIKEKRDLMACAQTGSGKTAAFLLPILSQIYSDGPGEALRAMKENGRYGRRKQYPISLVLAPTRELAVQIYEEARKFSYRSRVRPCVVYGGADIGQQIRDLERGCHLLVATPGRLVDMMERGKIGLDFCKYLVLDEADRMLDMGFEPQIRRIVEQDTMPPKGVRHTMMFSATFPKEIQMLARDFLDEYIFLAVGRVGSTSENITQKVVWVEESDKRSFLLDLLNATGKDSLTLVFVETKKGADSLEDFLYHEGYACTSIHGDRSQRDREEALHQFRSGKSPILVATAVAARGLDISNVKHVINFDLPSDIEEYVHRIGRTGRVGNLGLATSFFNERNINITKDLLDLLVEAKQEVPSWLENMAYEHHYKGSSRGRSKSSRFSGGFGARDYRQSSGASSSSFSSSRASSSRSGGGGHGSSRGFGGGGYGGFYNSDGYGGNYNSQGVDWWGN
The target of assay [8] is T4, Inhibitor of nuclear factor kappa-B kinase subunit epsilon (Homo sapiens, UniProt Q14164).
T4 sequence (Q14164 whole entry): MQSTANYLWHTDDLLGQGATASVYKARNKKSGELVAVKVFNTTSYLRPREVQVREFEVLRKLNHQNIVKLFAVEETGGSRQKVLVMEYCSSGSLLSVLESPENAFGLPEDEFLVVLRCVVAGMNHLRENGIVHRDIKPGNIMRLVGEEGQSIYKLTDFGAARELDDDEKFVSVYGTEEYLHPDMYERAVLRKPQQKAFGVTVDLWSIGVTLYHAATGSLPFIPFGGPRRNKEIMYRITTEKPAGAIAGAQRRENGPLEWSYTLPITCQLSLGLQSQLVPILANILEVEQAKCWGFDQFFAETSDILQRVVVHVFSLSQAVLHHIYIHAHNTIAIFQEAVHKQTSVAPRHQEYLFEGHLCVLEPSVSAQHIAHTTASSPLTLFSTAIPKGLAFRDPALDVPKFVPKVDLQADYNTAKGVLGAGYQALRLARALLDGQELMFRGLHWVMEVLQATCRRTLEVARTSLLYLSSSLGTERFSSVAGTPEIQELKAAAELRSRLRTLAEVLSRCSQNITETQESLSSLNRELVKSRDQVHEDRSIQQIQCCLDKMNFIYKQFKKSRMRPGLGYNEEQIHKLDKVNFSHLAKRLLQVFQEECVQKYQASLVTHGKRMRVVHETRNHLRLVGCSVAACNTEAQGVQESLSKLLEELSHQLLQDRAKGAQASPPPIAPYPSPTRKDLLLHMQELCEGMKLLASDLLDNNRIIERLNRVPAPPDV
Also: in the data inactive means no Kd found up to 30 µM.

Chain of Serine/threonine-protein kinase 26 (Q9P289 whole entry): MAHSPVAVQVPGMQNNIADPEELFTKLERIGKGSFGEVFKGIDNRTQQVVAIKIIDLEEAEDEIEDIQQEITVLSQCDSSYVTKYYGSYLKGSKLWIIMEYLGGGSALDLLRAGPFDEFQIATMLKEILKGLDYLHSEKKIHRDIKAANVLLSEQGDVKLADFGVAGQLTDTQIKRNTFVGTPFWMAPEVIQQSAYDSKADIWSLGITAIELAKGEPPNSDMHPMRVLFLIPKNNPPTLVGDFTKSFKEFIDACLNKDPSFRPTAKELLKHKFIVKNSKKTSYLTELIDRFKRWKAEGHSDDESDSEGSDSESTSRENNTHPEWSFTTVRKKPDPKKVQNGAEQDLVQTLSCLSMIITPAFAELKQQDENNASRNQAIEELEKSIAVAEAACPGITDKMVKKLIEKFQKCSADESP

In general, Kd refers to the constant that tells how readily two partners part at equilibrium. As for `CC1(COc2ccc3c(c2)ncn3-c2ccc3cccc(N4CCC(N)CC4)c3n2)COC1` [CRENOLANIB], the Kd on Ephrin type-B receptor 3 was > 30 µM (inactive); in assay [1], > 30 µM (inactive); in [2], 3.32 µM; in [3], > 30 µM (inactive); in [4], 0.743 µM (active); in assay [5], 0.013 µM (active). Besides, the Kd in assay [6], in assay [7] and in assay [8] was > 30 µM (inactive) in each case.
As for `NC(=O)c1ccc(N(C(N)=O)c2c(F)cccc2F)nc1-c1ccc(F)cc1F` [VX-702], the Kd (at Ephrin type-B receptor 3; in assay [1]; in [2]; in [3]; in assay [4]; in assay [5]) was > 30 µM (inactive) each time. Besides, the Kd in assay [6], in assay [7] and in assay [8] was > 30 µM (inactive) throughout.
Regarding `Cc1cc(-c2cc(OC(=O)c3ccccc3)ccc2Cl)cc2nnc(Nc3ccc(OCCN4CCCC4)cc3)nc12` [TG100-801], the Kd (on Ephrin type-B receptor 3; in [1]; in assay [2]; in assay [3]; in assay [4]; in assay [5]) was > 30 µM (inactive) each time. Also, the Kd in assay [6], in [7] and in [8] was > 30 µM (inactive) each time.
For the compound `O=C(Nc1ccc(OC(F)(F)F)cc1)c1sccc1NCc1ccnc2ccccc12` [OSI-930], the Kd (at Ephrin type-B receptor 3; in assay [1]; in [2]; in [3]; in assay [4]; in assay [5]) was > 30 µM (inactive) each time. For the same compound, the Kd in [6], in [7] and in assay [8] was > 30 µM (inactive) in each case.
Turning to `COc1ccc(-c2ccc3ncc4c(c3c2)n(-c2ccc(N3CCNCC3)c(C(F)(F)F)c2)c(=O)n4C)cn1` [BGT-226 FREE BASE], the Kd (at Ephrin type-B receptor 3; in [1]; in assay [2]; in assay [3]; in [4]; in [5]) was > 30 µM (inactive) throughout. For the same compound, the Kd in assay [6], in assay [7] and in assay [8] was > 30 µM (inactive) each time.
On to `CNC(=O)c1ccc(Nc2ncc(C(F)(F)F)c(NCc3nccnc3N(C)S(C)(=O)=O)n2)cc1` [DEFACTINIB], for which the Kd was > 30 µM (inactive) at Ephrin type-B receptor 3; > 30 µM (inactive) in assay [1]; > 30 µM (inactive) in assay [2]; > 30 µM (inactive) in assay [3]; 4.95 µM (active) in assay [4]; > 30 µM (inactive) in assay [5]. The Kd in assay [6], in assay [7] and in assay [8] was > 30 µM (inactive) each time.
Regarding `Cc1cc(C(=O)Nc2cc(Oc3ccc4nc(NC(=O)C5CC5)cn4n3)ccc2C)n(C)n1` [TAK-593], the Kd (at Ephrin type-B receptor 3; in [1]; in assay [2]; in [3]; in assay [4]; in assay [5]) was > 30 µM (inactive) each time. Besides, the Kd in assay [6], in assay [7] and in assay [8] was > 30 µM (inactive) throughout.
Regarding `O=C(O)c1ccc2c(c1)nc(Nc1cccc(Cl)c1)c1ccncc12` [SILMITASERTIB], the Kd is > 30 µM (inactive) at Ephrin type-B receptor 3; > 30 µM (inactive) in assay [1]; > 30 µM (inactive) in [2]; > 30 µM (inactive) in [3]; > 30 µM (inactive) in [4]; 1.71 µM in [5]. Further, the Kd in assay [6], in assay [7] and in assay [8] was > 30 µM (inactive) throughout.
In the case of `c1cc(OCCN2CCCCC2)cc(-c2n[nH]c3ccc(-c4nc[nH]n4)cc23)c1` [CC-401], the Kd (on Ephrin type-B receptor 3; in assay [1]; in assay [2]; in assay [3]; in assay [4]; in assay [5]) was > 30 µM (inactive) throughout. Further, the Kd in assay [6], in assay [7] and in assay [8] was > 30 µM (inactive) in each case.
In the case of `O=S(=O)(c1cccc2c(O)nccc12)N1CCCNCC1` [HYDROXYFASUDIL], the Kd (on Ephrin type-B receptor 3; in assay [1]; in assay [2]; in assay [3]; in assay [4]; in assay [5]) was > 30 µM (inactive) each time. The Kd in [6], in assay [7] and in assay [8] was > 30 µM (inactive) each time.
For the compound `CCN1CCN(Cc2ccc(Nc3ncc(F)c(-c4cc(F)c5nc(C)n(C(C)C)c5c4)n3)nc2)CC1` [ABEMACICLIB], the Kd (at Ephrin type-B receptor 3; in assay [1]; in assay [2]; in assay [3]; in assay [4]; in [5]) was > 30 µM (inactive) throughout. The Kd in assay [6], in assay [7] and in assay [8] was > 30 µM (inactive) each time.
